Where “and” joins values, the source holds several entries; their conditions need not be identical. Equal values may be shown once.
Tested on: 743489-274-T-PDC complex spheroid viability
Experiment: Anticancer human tumor 743489-274-T-PDC patient-derived renal cell carcinoma cell line growth inhibition
Conditions: for viability, T/C: stronger effect = lower value
Text: Multicellular complex tumor spheroid response to LSD1 Inhibitor Iadademstat in combination with a variety of drugs and investigational agents in selected tumor cell lines
The current study was undertaken to assess response to LSD1 inhibitors in combination with standard-of-care drugs and investigational agents in solid tumor complex spheroid models as well as in the K-562 leukemia. Complex spheroids include a stromal component modeled by human endothelial cells (HUVEC) and fibroblasts modeled by human mesenchymal stem cells (MSCs). The concentration ranges selected for each drug and investigational agent were based upon clinically achievable concentrations if the clinical Cmax of the agent was known.
Compounds. The drugs and investigational agents used in this study are listed on Table 1. All of the agents used, including staurosporine (NSC755774) and gemcitabine (NSC613327), were obtained from the Developmental Therapeutics Program, NCI. FDA-approved anticancer drugs are available from the NCI at http://dtp.nci.nih.gov/branches/dscb/oncology_drugset_explanation.html. Drugs and investigational agents were >95% pure by proton nuclear magnetic resonance (NMR) and liquid chromatography/mass spectrometry (LC/MS). Stock solutions were prepared at 400x in DMSO, stored at -70 degrees C, and diluted in fresh medium prior to their use. The final concentration of DMSO in cell culture wells never exceeded 0.25% (v/v). The FDA-approved anticancer drug set is available from the Developmental Therapeutics Program at https://dtp.cancer.gov/organization/dscb/obtaining/available_plates.htm. All drugs and investigational agents were tested over a range starting from a high concentration at or near the clinical Cmax and decreasing in half-log increments. If the clinical Cmax for an agent had not been determined, the highest concentration tested was 10 microM.
Cell Lines. The patient-derived cancer cell (PDC) lines: 292921-168-R-J2-PDC, K24384-001-R-PDC, and 521955-158-R2-J5-PDC pancreatic carcinomas, 556581-035-R-J1 ovarian carcinoma, 324938-238-R-J1-PDC, 855422-203-R-J1-PDC and 883617-216-R-J1-PDC urothelial bladder carcinomas, 743489-274-T-PDC renal cell carcinoma, 138582-R-J1 Merkel cell tumor, K60290-347-R-J1 and K57222-313-R-J1-PDC glioblastomas, 653999-131-R-J2-PDC, LG0703-F948-PDC, and 349418-098-R-PDC non-small cell lung carcinomas, 885512-296-R-J2-PDC, 171881-019-R-J1-PDC breast carcinomas and 186277-243-T-J2-PDC and 233499-124-R-J2-PDC colon carcinomas were obtained from the NCI Patient-Derived Models Repository (PDMR, https://pdmr.cancer.gov). The established cell lines NCI/ADR-RES (RRID:CVCL_14520 and OVCAR-5 (RRID:CVCL_1628) ovarian carcinomas, 786-O (RRID:CVCL_1051) and A498 (RRID:CVCL_A498) renal cell carcinoma, NCI-H211 (ATCC, cat. CRL-5824; RRID:CVCL_1529), NCI-H196 (ATCC, cat. CRL-5823, RRID:CVCL_1509), SW 1271 (ATCC, cat. CRL-2177, RRID:CVCL_1716) and NCI-H1876 (ATCC, cat. CRL-5902, RRID:CVCL_1503) small cell lung carcinomas, MDA-MB-231 (RRID:CVCL_0062) and MDA-MB-468 (RRID:CVCL_0419)breast carcinomas (10-12). Pooled donor human umbilical vein endothelial cells (HUVEC, Lonza, cat. CC-2519) and human mesenchymal stem cells (hMSC, Lonza, cat. PT-2501) were purchased from Lonza (Walkersville, MD).
Cell Culture. All cells were maintained in an incubator at 37 degrees C and 5% CO2 with 95% humidity. The PDC lines were cultured according to standard operating procedures established by the NCI PDMR (https://pdmr.cancer.gov). Briefly all PDCs were thawed and cultured in Matrigel-coated flasks prepared with a working solution of 1X Ham's F-12 nutrient mix, without supplementation (Invitrogen, Waltham, MA, cat. 11765054), 100 U/mL penicillin-streptomycin (Invitrogen, cat. 15140122), and 2.5% Matrigel (Corning Inc., Corning, NY, cat. 354248) for the first three passages. […]
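Also: spheroids exposed to compounds for 7 days before readout.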
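For viability, T/C in this document: 100% = DMSO vehicle control wells.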

| Compound | IC50 (curve of compound) | viability, T/C (compound 0.00316 µM) | viability, T/C (compound 0.01 µM) | viability, T/C (compound 0.0316 µM) | viability, T/C (compound 0.1 µM) | viability, T/C (compound 0.316 µM) | viability, T/C (compound 1 µM) | viability, T/C (compound 0.00949 µM) | viability, T/C (compound 0.03 µM) | viability, T/C (compound 0.0949 µM) | viability, T/C (compound 0.3 µM) | further results |
| --- | --- | --- | --- | --- | --- | --- | --- | --- | --- | --- | --- | --- |
| CC(C)CC(NC(=O)C(Cc1ccccc1)NC(=O)c1cnccn1)B(O)O (stereo not given) | 0.00731 µM and 0.00809 µM | 106% and 94.2% | 31% and 40% | 26.9% and 31.4% | 24.4% and 27.6% |  |  |  |  |  |  | viability, T/C (compound 0.000316 µM): 102% and 104%; viability, T/C (compound 0.001 µM): 93.9% and 105% |
| CC(C)CC(NC(=O)CNC(=O)c1cc(Cl)ccc1Cl)B1OC(=O)CC(CC(=O)O)(C(=O)O)O1 (stereo not given) | > 0.1 µM and 0.0847 µM | 99.5% and 94.1% | 84.9% and 83.3% | 84% and 76.2% | 58.8% and 44.4% |  |  |  |  |  |  | viability, T/C (compound 0.000316 µM): 97.9% and 109%; viability, T/C (compound 0.001 µM): 89.1% and 112% |
| NC1CC1c1ccc(-c2cccc(O)c2)cc1 (stereo not given) |  |  |  |  |  | 103% [middle of 25 runs] |  |  |  |  |  | IC50 (compound alone, run of 12/07/2021): > 10 µM |
| NC1CCC(NC2CC2c2ccccc2)CC1 (stereo not given) |  |  |  |  |  | 105% and 107% |  |  |  |  |  | IC50 (compound alone, run of 11/29/2021): > 10 µM |
| NS(=O)(=O)OCC1CC(n2ccc3c(NC4CCc5ccccc54)ncnc32)CC1O (stereo not given) | > 3 µM |  |  |  |  |  |  | 90.9% and 95.7% | 95.9% and 111% | 111% and 103% | 118% and 135% | viability, T/C (compound 0.949 µM): 116% and 125%; viability, T/C (compound 3 µM): 121% and 101% |
| Nc1ccccc1NC(=O)c1ccc(CNC(=O)OCc2cccnc2)cc1 | 1.16 µM and 0.758 µM |  |  |  |  |  |  | 85.4% and 102% | 89.2% and 78% | 95.2% and 79.4% | 78.8% and 67.1% | viability, T/C (compound 0.949 µM): 54.2% and 47.6%; viability, T/C (compound 3 µM): 32.6% and 26.4% |
| Nc1ccn(C2OC(CO)C(O)C2(F)F)c(=O)n1 (stereo not given) | > 0.3 µM |  |  |  |  |  |  | 73% and 96.8% | 73.7% and 58% | 71.6% and 64.1% | 65.2% and 63.2% | viability, T/C (compound 0.000949 µM): 82.7% and 61.8%; viability, T/C (compound 0.003 µM): 85.6% and 60.9% |
| Nc1ncn(C2CC(O)C(CO)O2)c(=O)n1 (stereo not given) | > 1 µM | 105% and 90.1% | 98% and 100% | 81% and 101% | 96.1% and 84.5% | 96% and 94.3% | 84.3% and 97.7% |  |  |  |  |  |
| Nc1ncn(C2CC(O)C(CO)S2)c(=O)n1 (stereo not given) | > 0.3 µM |  |  |  |  |  |  | 90.8% and 92% | 80.2% and 82.5% | 89.9% and 81.5% | 88.7% and 75.2% | viability, T/C (compound 0.000949 µM): 106% and 96.8%; viability, T/C (compound 0.003 µM): 108% and 96.2% |
| O=C(C=Cc1cccc(S(=O)(=O)Nc2ccccc2)c1)NO | 1.61 µM and 1.01 µM |  |  |  |  |  |  | 89.9% and 92.2% | 83.1% and 89.3% | 76.4% and 75% | 66.4% and 65% | viability, T/C (compound 0.949 µM): 55.4% and 51.6%; viability, T/C (compound 3 µM): 43.6% and 35.7% |
| O=C(C=Cn1cnc(-c2cc(C(F)(F)F)cc(C(F)(F)F)c2)n1)NNc1cnccn1 | > 1 µM | 106% and 109% | 108% and 91% | 121% and 117% | 115% and 97.5% | 94.2% and 86.3% | 81.2% and 73.2% |  |  |  |  |  |
| O=C(c1cc(Cc2n[nH]c(=O)c3ccccc23)ccc1F)N1CCN(C(=O)C2CC2)CC1 | > 10 µM |  |  | 95.3% and 101% | 88.2% and 113% | 102% and 108% | 108% |  |  |  |  | viability, T/C (compound 3.16 µM): 94.5% and 93.2%; viability, T/C (compound 10 µM): 83% and 82.5% |

The next lines start with results.

| IC50 (curve of compound) | Compound | viability, T/C (compound 0.00316 µM) | viability, T/C (compound 0.01 µM) | viability, T/C (compound 0.0316 µM) | viability, T/C (compound 0.1 µM) | viability, T/C (compound 0.316 µM) | viability, T/C (compound 1 µM) | viability, T/C (compound 0.00949 µM) | viability, T/C (compound 0.03 µM) | viability, T/C (compound 0.0949 µM) | viability, T/C (compound 0.3 µM) | further results |
| --- | --- | --- | --- | --- | --- | --- | --- | --- | --- | --- | --- | --- |
| > 10 µM | CC(C)c1c(-c2ccccc2)nc2c(C#N)c[nH]n2c1=O |  |  | 106% and 94.8% | 100% and 102% | 86.4% and 102% | 96% and 107% |  |  |  |  | viability, T/C (compound 3.16 µM): 93.2% and 93.5% |
| > 10 µM | CC1(C)CCC(CN2CCN(c3ccc(C(=O)NS(=O)(=O)c4ccc(NCC5CCOCC5)c([N+](=O)[O-])c4)c(Oc4cnc5[nH]ccc5c4)c3)CC2)=C(c2ccc(Cl)cc2)C1 |  |  | 90.8% and 100% | 108% | 104% and 109% | 113% and 111% |  |  |  |  | viability, T/C (compound 3.16 µM): 128% and 106%; viability, T/C (compound 10 µM): 120% and 122% |
| > 1 µM | CC1COCCN1c1cc(-c2ccnn2C)c2ccnc(-c3ccn[nH]3)c2n1 (stereo not given) | 102% and 81.5% | 107% | 78.8% and 87.5% | 70.9% and 71.9% | 71.5% and 56.4% | 64.2% and 53.2% |  |  |  |  |  |
| > 10 µM | CC1COCCN1c1cc(C2(S(C)(=N)=O)CC2)nc(-c2ccnc3[nH]ccc23)n1 (stereo not given) |  |  | 93.4% and 107% | 112% and 104% | 99.9% and 87% | 93.9% and 91.4% |  |  |  |  | viability, T/C (compound 3.16 µM): 100% and 90.3%; viability, T/C (compound 10 µM): 81.3% and 63.8% |
| > 3 µM | CCN(c1cc(-c2ccc(CN3CCOCC3)cc2)cc(C(=O)NCc2c(C)cc(C)[nH]c2=O)c1C)C1CCOCC1 |  |  |  |  |  |  | 106% and 107% | 94.5% and 105% | 87.8% and 92.8% | 97.2% and 111% | viability, T/C (compound 0.949 µM): 98.5% and 105%; viability, T/C (compound 3 µM): 95.9% and 105% |
| > 0.1 µM | CC[C@@]1(O)C(=O)OCc2c1cc1n(c2=O)Cc2cc3c(CN(C)C)c(O)ccc3nc2-1 | 96.5% and 72.1% | 86.4% and 76.7% | 75.1% and 60.3% | 63.7% and 57.8% |  |  |  |  |  |  | viability, T/C (compound 0.000316 µM): 103% and 92.9%; viability, T/C (compound 0.001 µM): 104% and 83.4% |
| 0.0207 µM and 0.00536 µM | CCc1c2c(nc3ccc(O)cc13)-c1cc3c(c(=O)n1C2)COC(=O)[C@]3(O)CC |  |  |  |  |  |  | 61.9% and 44.5% | 40.2% and 45.4% | 45.4% and 44.3% | 43.2% and 39.3% | viability, T/C (compound 0.000949 µM): 88.1% and 71.3%; viability, T/C (compound 0.003 µM): 68% and 54.2% |
| > 3 µM | COc1cc(C2c3cc4c(cc3C(OC3OC5COC(C)OC5C(O)C3O)C3COC(=O)C23)OCO4)cc(OC)c1O (stereo not given) |  |  |  |  |  |  | 98.2% and 111% | 114% and 112% | 70.3% and 81.1% | 92.8% and 99.4% | viability, T/C (compound 0.949 µM): 98.9% and 88.8%; viability, T/C (compound 3 µM): 82% and 91.5% |
| > 1 µM | COc1cc(Nc2ncc3c(n2)-c2ccc(Cl)cc2C(c2c(F)cccc2OC)=NC3)ccc1C(=O)O | 102% and 91.3% | 91.3% and 102% | 89.6% and 92% | 92.6% and 90.8% | 94.2% and 87.2% | 91.7% and 67.7% |  |  |  |  |  |
| 1.73 µM and 0.753 µM | COc1ccc([C@@H](O)c2cc(-c3ncnc4cc(N5CCOCC5)ccc34)c(F)cc2Cl)nn1 |  |  | 108% and 93.4% | 100% and 95.8% | 90.5% and 72.5% | 59.4% and 43.6% |  |  |  |  | viability, T/C (compound 3.16 µM): 38.7% and 21.3%; viability, T/C (compound 10 µM): 20.8% and 19.4% |
| > 0.1 µM | Cn1ncnc1C1c2n[nH]c(=O)c3cc(F)cc(c23)NC1c1ccc(F)cc1 (stereo not given) | 90.2% and 98.6% | 95.9% and 90.8% | 93.7% and 92.8% | 91.4% and 84.3% |  |  |  |  |  |  | viability, T/C (compound 0.000316 µM): 88.5% and 99.7%; viability, T/C (compound 0.001 µM): 100% and 110% |

— PubChem BioAssay AID1918942 (Molecular Pharmacology Branch, DTP, NCI, 2023)
